Results: the NIST ThermoML archive (doi:10.1021/je700754k)
Numbers after ± are expanded uncertainties.

How the values were obtained:
[1] = xn = mol fraction of the nth substance listed; details: 101 kPa, Liquid
[2] = excess molar enthalpy (molar enthalpy of mixing); xn = mol fraction of the nth substance listed; details: 303.15 K, 101 kPa, Liquid, Calvet calorimetry

CCCCn1cc[n+](C)c1.COS(=O)(=O)[O-] [1-butyl-3-methylimidazolium methyl sulfate] + CCO
mass density [kg/m3], [1]
Details	293.15 K	303.15 K	313.15 K	323.15 K
x1 = 0.0459	854.75 ± 0.74	846.48 ± 0.76	838.14 ± 0.79	829.69 ± 0.82
x1 = 0.0987	913.25 ± 0.56	905.23 ± 0.59	897.17 ± 0.61	889.06 ± 0.64
x1 = 0.142	952 ± 0.46	944.14 ± 0.48	936.26 ± 0.5	928.36 ± 0.52
x1 = 0.1905	988.2 ± 0.38	980.49 ± 0.4	972.79 ± 0.41	965.08 ± 0.43
x1 = 0.2357	1016.76 ± 0.39	1009.19 ± 0.38	1001.63 ± 0.36	994.07 ± 0.37
x1 = 0.2733	1037.27 ± 0.44	1029.8 ± 0.42	1022.32 ± 0.4	1014.88 ± 0.39
x1 = 0.3516	1073.29 ± 0.53	1065.97 ± 0.51	1058.67 ± 0.49	1051.41 ± 0.47
x1 = 0.4381	1104.9 ± 0.63	1097.71 ± 0.6	1090.57 ± 0.58	1083.48 ± 0.56
x1 = 0.5335	1132.61 ± 0.7	1125.56 ± 0.68	1118.55 ± 0.66	1111.6 ± 0.64
x1 = 0.5712	1141.96 ± 0.73	1134.95 ± 0.7	1127.99 ± 0.68	1121.09 ± 0.66
x1 = 0.6742	1163.83 ± 0.79	1156.95 ± 0.77	1150.1 ± 0.74	1143.31 ± 0.72
x1 = 0.7665	1180.16 ± 0.83	1173.37 ± 0.81	1166.61 ± 0.79	1159.9 ± 0.77
x1 = 0.8482	1192.27 ± 0.87	1185.55 ± 0.85	1178.85 ± 0.82	1172.21 ± 0.8
x1 = 0.9248	1202.35 ± 0.9	1195.72 ± 0.87	1189.08 ± 0.85	1182.49 ± 0.83
x1 = 1	1211.17 ± 0.92	1204.48 ± 0.9	1197.92 ± 0.88	1191.39 ± 0.86

[2]
Details	excess molar enthalpy [kcal/mol]
x1 = 0.016	0.0504 ± 0.00406
x1 = 0.0338	0.088 ± 0.00717
x1 = 0.1032	0.206 ± 0.0165
x1 = 0.1897	0.277 ± 0.0222
x1 = 0.2821	0.316 ± 0.0263
x1 = 0.3379	0.305 ± 0.0239
x1 = 0.5068	0.256 ± 0.0206
x1 = 0.5946	0.229 ± 0.0184
x1 = 0.7119	0.166 ± 0.0134
x1 = 0.7889	0.122 ± 0.0098
x1 = 0.9083	0.0526 ± 0.0043

CCCCn1cc[n+](C)c1.F[B-](F)(F)F [1-butyl-3-methylimidazolium tetrafluoroborate] + CCO
mass density [kg/m3], [1]
Details	293.15 K	303.15 K	313.15 K	323.15 K
x1 = 0.0517	854.59 ± 0.74	846.27 ± 0.76	837.83 ± 0.79	829.27 ± 0.82
x1 = 0.0918	895.67 ± 0.62	887.54 ± 0.64	879.27 ± 0.67	870.9 ± 0.69
x1 = 0.1479	943.11 ± 0.48	935.12 ± 0.5	927.02 ± 0.52	918.84 ± 0.55
x1 = 0.1995	980.07 ± 0.4	972.15 ± 0.41	964.15 ± 0.43	956.11 ± 0.45
x1 = 0.2518	1011.33 ± 0.38	1003.46 ± 0.36	995.56 ± 0.36	987.64 ± 0.38
x1 = 0.3228	1046.79 ± 0.46	1039.01 ± 0.44	1031.22 ± 0.42	1023.46 ± 0.41
x1 = 0.4219	1085.81 ± 0.57	1078.14 ± 0.54	1070.51 ± 0.52	1062.91 ± 0.5
x1 = 0.5356	1120.88 ± 0.67	1113.35 ± 0.64	1105.88 ± 0.62	1098.46 ± 0.6
x1 = 0.6244	1142.66 ± 0.72	1135.23 ± 0.7	1127.86 ± 0.68	1120.54 ± 0.66
x1 = 0.709	1160.24 ± 0.77	1152.89 ± 0.75	1145.59 ± 0.73	1138.37 ± 0.7
x1 = 0.8295	1181.36 ± 0.83	1174.12 ± 0.81	1166.93 ± 0.79	1159.8 ± 0.77
x1 = 0.9327	1196.33 ± 0.88	1189.16 ± 0.85	1182.04 ± 0.83	1174.97 ± 0.81
x1 = 1	1204.93 ± 0.9	1197.83 ± 0.88	1190.74 ± 0.86	1183.72 ± 0.83

[2]
Details	excess molar enthalpy [kcal/mol]
x1 = 0.0201	0.086 ± 0.00693
x1 = 0.0573	0.204 ± 0.0163
x1 = 0.1005	0.307 ± 0.0239
x1 = 0.1962	0.467 ± 0.0382
x1 = 0.3371	0.591 ± 0.0478
x1 = 0.4225	0.624 ± 0.0502
x1 = 0.5001	0.6 ± 0.0478
x1 = 0.5874	0.545 ± 0.043
x1 = 0.6333	0.49 ± 0.0406
x1 = 0.7422	0.399 ± 0.0311
x1 = 0.8291	0.277 ± 0.0222
x1 = 0.9257	0.149 ± 0.012

CCCCn1cc[n+](C)c1.F[B-](F)(F)F [1-butyl-3-methylimidazolium tetrafluoroborate] + C[N+](=O)[O-]
[1], x1 = 1
Details	mass density [kg/m3]
293.15 K	1204.99 ± 1.8
303.15 K	1197.89 ± 1.8
313.15 K	1190.81 ± 1.7
323.15 K	1183.78 ± 1.7

C[N+](=O)[O-] [nitromethane] + CCCCn1cc[n+](C)c1.COS(=O)(=O)[O-]
[1], x2 = 0
Details	mass density [kg/m3]
293.15 K	1137.92 ± 1.9
303.15 K	1124.32 ± 1.8
313.15 K	1110.62 ± 1.7
323.15 K	1096.82 ± 1.6

CCCCn1cc[n+](C)c1.COS(=O)(=O)[O-] [1-butyl-3-methylimidazolium methyl sulfate] + C[N+](=O)[O-]
mass density [kg/m3], [1]
Details	293.15 K	303.15 K	313.15 K	323.15 K
x1 = 0.0398	1152.79 ± 2	1140.52 ± 1.9	1128.19 ± 1.8	1115.81 ± 1.7
x1 = 0.1021	1167.13 ± 2	1156.18 ± 2	1145.2 ± 1.9	1134.22 ± 1.8
x1 = 0.1433	1174.03 ± 2.1	1163.71 ± 2	1153.39 ± 1.9	1143.09 ± 1.8
x1 = 0.1988	1181.04 ± 2.1	1171.38 ± 2	1161.73 ± 1.9	1152.11 ± 1.9
x1 = 0.2444	1185.56 ± 2	1176.34 ± 2	1167.13 ± 1.9	1157.97 ± 1.9
x1 = 0.2998	1189.98 ± 2	1181.18 ± 2	1172.41 ± 1.9	1163.68 ± 1.9
x1 = 0.3979	1195.81 ± 2	1187.57 ± 1.9	1179.37 ± 1.9	1171.23 ± 1.8
x1 = 0.4786	1199.41 ± 2	1191.53 ± 1.9	1183.69 ± 1.9	1175.91 ± 1.8
x1 = 0.5652	1202.31 ± 1.9	1194.73 ± 1.9	1187.19 ± 1.8	1179.71 ± 1.8
x1 = 0.7127	1206.24 ± 1.9	1199.08 ± 1.8	1191.95 ± 1.8	1184.88 ± 1.7
x1 = 0.8212	1208.19 ± 1.9	1201.28 ± 1.8	1194.38 ± 1.8	1187.53 ± 1.7
x1 = 0.8546	1208.81 ± 1.9	1201.97 ± 1.8	1195.14 ± 1.8	1188.36 ± 1.7
x1 = 1	1211.16 ± 1.8	1204.45 ± 1.8	1197.88 ± 1.8	1191.35 ± 1.7

[2]
Details	excess molar enthalpy [kcal/mol]
x1 = 0.0804	-0.038 ± 0.00311
x1 = 0.1617	-0.0681 ± 0.0055
x1 = 0.2832	-0.0946 ± 0.00765
x1 = 0.394	-0.111 ± 0.00884
x1 = 0.4351	-0.108 ± 0.0086
x1 = 0.5566	-0.0999 ± 0.00813
x1 = 0.6675	-0.0884 ± 0.00717
x1 = 0.7671	-0.0652 ± 0.00526
x1 = 0.8761	-0.0311 ± 0.00263

CCO [ethanol] + CCCCn1cc[n+](C)c1.COS(=O)(=O)[O-]
[1], x2 = 0
Details	mass density [kg/m3]
293.15 K	789.53 ± 0.94
303.15 K	780.94 ± 0.96
313.15 K	772.2 ± 0.99
323.15 K	763.28 ± 1

CCO [ethanol] + CCCCn1cc[n+](C)c1.F[B-](F)(F)F
[1], x2 = 0
Details	mass density [kg/m3]
293.15 K	789.38 ± 0.94
303.15 K	780.78 ± 0.96
313.15 K	772.04 ± 0.99
323.15 K	763.14 ± 1

C[N+](=O)[O-] [nitromethane] + CCCCn1cc[n+](C)c1.F[B-](F)(F)F
mass density [kg/m3], [1]
Details	293.15 K	303.15 K	313.15 K	323.15 K
x2 = 0	1137.98 ± 1.9	1124.39 ± 1.8	1110.68 ± 1.7	1096.88 ± 1.6
x2 = 0.0512	1154.27 ± 2	1142.08 ± 1.9	1129.84 ± 1.8	1117.57 ± 1.7
x2 = 0.0991	1164.29 ± 2	1152.98 ± 1.9	1141.66 ± 1.9	1130.32 ± 1.8
x2 = 0.1392	1170.56 ± 2	1159.82 ± 2	1149.08 ± 1.9	1138.35 ± 1.8
x2 = 0.2026	1178.15 ± 2	1168.09 ± 2	1158.06 ± 1.9	1148.05 ± 1.8
x2 = 0.2986	1186.08 ± 2	1176.78 ± 1.9	1167.52 ± 1.9	1158.31 ± 1.8
x2 = 0.3565	1189.62 ± 2	1180.67 ± 1.9	1171.76 ± 1.9	1162.9 ± 1.8
x2 = 0.3972	1191.64 ± 2	1182.9 ± 1.9	1174.2 ± 1.9	1165.55 ± 1.8
x2 = 0.4553	1194.13 ± 1.9	1185.65 ± 1.9	1177.21 ± 1.8	1168.83 ± 1.8
x2 = 0.5231	1196.42 ± 1.9	1188.18 ± 1.9	1179.99 ± 1.8	1171.87 ± 1.8
x2 = 0.5949	1198.48 ± 1.9	1190.48 ± 1.8	1182.53 ± 1.8	1174.65 ± 1.7
x2 = 0.6863	1200.57 ± 1.9	1192.82 ± 1.8	1185.11 ± 1.8	1177.48 ± 1.7
x2 = 0.8073	1202.6 ± 1.8	1195.13 ± 1.8	1187.69 ± 1.7	1180.33 ± 1.7
x2 = 0.8634	1203.37 ± 1.8	1196.01 ± 1.8	1188.69 ± 1.7	1181.43 ± 1.7

[2]
Details	excess molar enthalpy [kcal/mol]
x2 = 0.0016	-0.00167 ± 0.000239
x2 = 0.0273	-0.022 ± 0.00191
x2 = 0.0558	-0.0435 ± 0.00359
x2 = 0.1131	-0.0686 ± 0.0055
x2 = 0.202	-0.097 ± 0.00789
x2 = 0.3621	-0.116 ± 0.00932
x2 = 0.5067	-0.108 ± 0.0086
x2 = 0.6037	-0.0978 ± 0.00789
x2 = 0.7226	-0.0755 ± 0.00598
x2 = 0.8827	-0.038 ± 0.00311
